Experimental data reported in publication PMC8789054, “The nucleotide messenger (p)ppGpp is an anti-inducer of the purine synthesis transcription regulator PurR in Bacillus” (Nucleic Acids Research, 2021).
One block for each molecule: values may come before it.

Experiments:
PurR [1] = molecular target: T1, PurR (Bacillus subtilis, UniProt P37551); test: X-ray co-crystal structure ([…] Å); DRaCALA with […]-ppGpp; assay type: binding
T1 construct: untagged B. subtilis PurR

PurR [2] = molecular target: T1, PurR; test: DRaCALA with […]-pppGpp; assay type: binding
PurR Y102A/F205A = molecular target: T2, PurR Y102A/F205A (Bacillus subtilis, UniProt P37551, Y102A/F205A); test: inhibition of PurR-DNA probe binding by PRPP (Supplementary Figure S15); assay type: biochemical
T2 sequence (P37551 1-285 Y102A/F205A): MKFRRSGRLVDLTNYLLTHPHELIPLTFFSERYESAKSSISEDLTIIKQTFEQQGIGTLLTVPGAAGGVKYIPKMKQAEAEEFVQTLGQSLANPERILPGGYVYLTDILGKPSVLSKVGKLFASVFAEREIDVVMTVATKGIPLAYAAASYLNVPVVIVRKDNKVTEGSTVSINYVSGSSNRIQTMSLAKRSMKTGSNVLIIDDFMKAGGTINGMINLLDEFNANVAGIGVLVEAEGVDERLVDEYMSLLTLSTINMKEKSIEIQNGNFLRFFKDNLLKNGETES

PurR Y102A/K207A = molecular target: T3, PurR Y102A/K207A (Bacillus subtilis, UniProt P37551, Y102A/K207A); test: as above; assay type: biochemical
T3 sequence (P37551 1-285 Y102A/K207A): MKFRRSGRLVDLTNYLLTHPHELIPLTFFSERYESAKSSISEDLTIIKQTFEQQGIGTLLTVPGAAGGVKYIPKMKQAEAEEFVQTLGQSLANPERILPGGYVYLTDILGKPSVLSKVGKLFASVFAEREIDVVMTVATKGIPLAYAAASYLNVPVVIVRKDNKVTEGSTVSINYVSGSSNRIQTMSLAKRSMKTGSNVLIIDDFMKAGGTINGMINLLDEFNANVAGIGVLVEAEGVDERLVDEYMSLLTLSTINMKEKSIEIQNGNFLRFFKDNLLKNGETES

[3] = molecular target: the molecule itself; test: crystal structure; untagged PurR at 20 mg/ml with 1 mM ppGpp, hanging drop vapor diffusion, 0.1 M MES pH 6.5, 18% PEG 1500, room temperature; space group P1, three PurR dimers in the asymmetric unit; 2.45 Å

Molecule: Nc1nc2c(ncn2[C@@H]2O[C@H](COP(=O)(O)OP(=O)(O)O)[C@@H](OP(=O)(O)OP(=O)(O)O)[C@H]2O)c(=O)[nH]1 [ppGpp]
Kd (PurR [1]): ~4.4 µM

Kd (PurR [2]): ~4.4 µM
Molecule: Nc1nc2c(ncn2[C@@H]2O[C@H](COP(=O)(O)OP(=O)(O)OP(=O)(O)O)[C@@H](OP(=O)(O)OP(=O)(O)O)[C@H]2O)c(=O)[nH]1 [pppGpp]

Molecule: O=P(O)(O)OC[C@H]1O[C@H](OP(=O)(O)OP(=O)(O)O)[C@H](O)[C@@H]1O [PRPP]
inhibition of PurR-DNA probe binding by PRPP (Supplementary Figure S15) (PurR Y102A/F205A): yet still bind to DNA probes and their binding to DNA is still inhibited by PRPP
inhibition of PurR-DNA probe binding by PRPP (Supplementary Figure S15) (PurR Y102A/K207A): yet still bind to DNA probes and their binding to DNA is still inhibited by PRPP

B1: Bacillus subtilis purine synthesis transcription regulator PurR (untagged) (natural protein, B. subtilis)
chain: MKFRRSGRLVDLTNYLLTHPHELIPLTFFSERYESAKSSISEDLTIIKQTFEQQGIGTLLTVPGAAGGVKYIPKMKQAEAEEFVQTLGQSLANPERILPGGYVYLTDILGKPSVLSKVGKLFASVFAEREIDVVMTVATKGIPLAYAAASYLNVPVVIVRKDNKVTEGSTVSINYVSGSSNRIQTMSLAKRSMKTGSNVLIIDDFMKAGGTINGMINLLDEFNANVAGIGVLVEAEGVDERLVDEYMSLLTLSTINMKEKSIEIQNGNFLRFFKDNLLKNGETES
notes: PurR, purine synthesis transcription regulator of Bacillus subtilis; Crystallised with 1 mM ppGpp; three dimers in the asymmetric unit; also called B. subtilis PurR; purine repressor PurR; source: E. coli BL21 T7 Express lacIq, purified (HisTrap FF, TEV cleavage, second HisTrap FF, Sephacryl S-200 gel filtration)
binding result [3]: binds
